Data from US8551312B2, “Process to prepare amino acid-N, N-diacetic acid compounds” (Akzo Nobel N.V., priority 2006, dated 2013).

Columns and labels:
Assay type in all cases: physicochemical
[1] = Conductivity of c. 40 wt % chelate solution (Knick Konductometer 703); settings: c. 40 wt % chelate in water
Description: (§1) Commercial Dissolvine® GL-38, Dissolvine® H-40 ex Akzo Nobel Chemicals, and Trilon® M ex BASF were used as reference GLDA-Na4, HEDTA-Na3, and MGDA-Na3, respectively. The partially acidified chelates (40% in water) were prepared by addition of the corresponding chelate acid (in water) to the commercial product until the highest pH was obtained at which less than 0.1 wt % fully neutralized chelate is present. GLDA-H4 was prepared by electrodialysis and MGDA-Nax<3H3−x was made from Trilon® M by ion exchange. The desired pH was derived from the species distribution graphs that are based on the protonation constants. The resulting chelate solutions all have a chelate content (Fe-TSV) between 38.3 and 43 wt % of the salt actually present.
The conductivity was measured with a Knick Konductometer 703.

[2] = pH of the c. 40 wt % chelate solution by glass electrode; settings: c. 40 wt % chelate solution as such
Description: as §1, with “constants.” for “constants. The resulting chelate solutions all have a chelate content (Fe-TSV) between 38.3 and 43 wt % of the salt actually present.”
The pH of the c. 40 wt % chelate solution as such was determined by a glass electrode.

[3] = Viscosity (Brookfield DV-II+ pro viscometer, S-18 spindle); settings: c. 40 wt % chelate in water
Description: as §1
The viscosity was determined with a Brookfield DV-II+ pro viscometer, using a S-18 spindle. The temperature was maintained with a cryostat.

[4] = Corrosiveness against aluminium, weight loss of submerged plates; settings: aluminium plates submerged in c. 40 wt % chelate solution at RT
Description: as §1
The corrosiveness against aluminium was determined using unspecified aluminium plates. The aluminium plates of 6×3×0.2 cm, supplied by the technical service, were cleaned with ethanol cleaner and dried and the weight of the plates was measured. Subsequently, the plates were completely submerged in the commercial or partially acidified chelate solution and kept at RT. In time, the plates were removed from the solutions, rinsed, dried by technical air, and weighted. The corrosiveness was expressed as the weight loss after a certain period of time. Furthermore, the aluminium plates and the chelate solution were visually inspected to evaluate the corrosion process.

Row | Conductivity (mS/cm) at 20° C. [1] [mS/cm] | pH [2] | Viscosity at 20° C. (Mpas) [3] [Mpas] | Viscosity at 40° C. (Mpas) [3] [Mpas] | Compound | Corrosiveness Aluminium (% weigth loss after 70 hr) [4] [% weigth loss]
1 | 20.29 | 13.4 | 31 | 14.7 | O=C([O-])CN(CCO)CCN(CC(=O)[O-])CC(=O)[O-].[Na+].[Na+].[Na+] [HEDTA-Na3] | 7
2 | 25.8 | 13.5 | 26 | 11.0 | CC(C(=O)[O-])N(CC(=O)[O-])CC(=O)[O-].[Na+].[Na+].[Na+] (stereo not drawn) [MGDA-Na3] | 6

Row | Compound | Conductivity (mS/cm) at 20° C. [1] [mS/cm] | pH [2] | Viscosity at 20° C. (Mpas) [3] [Mpas] | Viscosity at 40° C. (Mpas) [3] [Mpas] | Corrosiveness Aluminium (% weigth loss after 70 hr) [4] [% weigth loss]
3 | tetrasodium glutamic acid-N,N-diacetate [GLDA-Na4] | 20.9 | 13.5 | 51.5 | 21.4 | 7
